Consider 23 molecules from patent US20090131503A1, “3,5 - SUBSTITUTED INDOLE COMPOUNDS HAVING NOS AND NOREPINEPHRINE REUPTAKE INHIBITORY ACTIVITY” (priority 2007, published 2009).

The target of one experiment is T1, human NET (Homo sapiens, UniProt P23975).
T1 construct: expressed in transfected cells
As to the kind of experiment: Human norepinephrine transporter assay, [3H]nisoxetine binding to cell membrane homogenates. The procedure:
Human Norepinephrine Transporter Assay
Nonspecific binding was determined in the presence of 1 μM desipramine. Following incubation, the samples were filtered rapidly under vacuum through glass fiber filters (GF/B, Packard) presoaked with 0.3% PEI, and rinsed several times with ice-cold 50 mM Tris-HCl using a 96-sample cell harvester (Unifilter, Packard). The filters were dried then counted for radioactivity in a scintillation counter (Topcount, Packard) using a scintillation cocktail (Microscint 0, Packard). The results were expressed as a percent inhibition of the control radioligand specific binding. The standard reference compound was protriptyline, which was tested in each experiment at several concentrations to obtain a competition curve from which its IC50 is calculated. Typical assay volumes were 250 μL in 96-well plate and compounds are solubilized in water.

The target of experiment [1] is T2, Nitric oxide synthase (endothelial, human recombinant) eNOS (Homo sapiens, UniProt P29474).
T2 construct: purchased Axxora LLC ALX-201-070
T2 sequence (P29474 whole entry): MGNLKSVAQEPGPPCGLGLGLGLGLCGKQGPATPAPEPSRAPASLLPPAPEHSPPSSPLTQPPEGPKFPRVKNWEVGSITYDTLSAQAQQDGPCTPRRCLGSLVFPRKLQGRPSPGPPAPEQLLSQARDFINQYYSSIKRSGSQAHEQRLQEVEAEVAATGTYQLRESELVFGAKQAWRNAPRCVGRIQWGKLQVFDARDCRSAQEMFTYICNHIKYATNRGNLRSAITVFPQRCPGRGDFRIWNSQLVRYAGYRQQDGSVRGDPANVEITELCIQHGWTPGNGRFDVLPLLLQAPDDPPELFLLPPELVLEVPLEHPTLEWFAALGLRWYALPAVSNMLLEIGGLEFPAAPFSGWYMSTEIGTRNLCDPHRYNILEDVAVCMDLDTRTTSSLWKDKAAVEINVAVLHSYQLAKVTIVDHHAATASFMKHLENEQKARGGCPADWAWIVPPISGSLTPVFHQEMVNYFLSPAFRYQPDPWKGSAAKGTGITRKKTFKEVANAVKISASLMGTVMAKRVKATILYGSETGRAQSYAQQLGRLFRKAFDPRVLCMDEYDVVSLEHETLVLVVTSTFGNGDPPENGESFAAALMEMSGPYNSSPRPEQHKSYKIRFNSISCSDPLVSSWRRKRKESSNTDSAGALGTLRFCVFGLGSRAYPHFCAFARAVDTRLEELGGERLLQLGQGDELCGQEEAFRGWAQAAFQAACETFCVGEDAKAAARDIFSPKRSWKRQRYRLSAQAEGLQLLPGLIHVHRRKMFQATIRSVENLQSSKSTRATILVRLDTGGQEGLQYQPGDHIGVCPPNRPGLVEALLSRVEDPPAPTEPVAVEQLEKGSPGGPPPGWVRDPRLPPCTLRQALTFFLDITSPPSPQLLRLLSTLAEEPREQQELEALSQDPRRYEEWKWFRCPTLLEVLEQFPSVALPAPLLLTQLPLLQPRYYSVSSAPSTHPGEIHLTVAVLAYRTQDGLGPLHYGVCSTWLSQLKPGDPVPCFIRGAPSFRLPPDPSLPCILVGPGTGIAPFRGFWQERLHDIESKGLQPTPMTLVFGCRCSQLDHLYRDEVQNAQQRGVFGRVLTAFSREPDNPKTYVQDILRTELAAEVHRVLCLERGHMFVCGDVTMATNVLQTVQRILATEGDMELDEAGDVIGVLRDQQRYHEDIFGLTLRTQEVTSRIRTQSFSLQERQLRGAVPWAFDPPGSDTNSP
As to the kind of experiment: eNOS (human) enzyme assay, [3H]-L-arginine to L-citrulline conversion. It is filed as biochemical.
Protocol: (§2) Primary stock solutions of test compounds at a concentration of 6 mM are prepared. The primary stock solutions of each test compound are prepared freshly in distilled water on the day of study. […] Concentration range of test compound utilized for nNOS are 0.001 to 300 μM and for eNOS are 0.003 to 1000 μM. The vehicle of the test compound or inhibitor is used as blank control. […] The IC50 concentration of L-NAME was run in parallel as a control.
(§3) All incubations are performed in duplicate:
Total reaction volume is 60 μL.
(§4) Mix using a vortex mixer and incubate the above reaction mixture at 37° C. in an incubator for 30 mins.
(§5) Add 400 μL of ice-cold Stop Buffer at the end of the incubation period to stop the reaction. (The EDTA in the Stop Buffer chelates all of the available calcium.) Mix using a vortex mixer and transfer the reaction samples to spin cups and centrifuge using a microcentrifuge, at 13,000 rpm for 30 sec. at room temperature.
(§6) Remove the spin cups from the holder and transfer 450 μL of eluate (containing the unbound L-citrulline) to scintillation vials. Add 3 mL of scintillation fluid and quantify the radioactivity in a liquid scintillation counter.
(§7) Data is analyzed using a Sigmoidal dose-response (variable slope) curve to determine the IC50 value of the test compound.
(§8) Y=Bottom+(Top−Bottom)/(1+10̂((Log IC50−X)*Hill Slope))

In experiment [2] the target is T3, Nitric oxide synthase (neuronal, human recombinant) nNOS (Homo sapiens, UniProt P29475).
T3 construct: purchased Axxora LLC ALX-201-068
T3 sequence (P29475 whole entry): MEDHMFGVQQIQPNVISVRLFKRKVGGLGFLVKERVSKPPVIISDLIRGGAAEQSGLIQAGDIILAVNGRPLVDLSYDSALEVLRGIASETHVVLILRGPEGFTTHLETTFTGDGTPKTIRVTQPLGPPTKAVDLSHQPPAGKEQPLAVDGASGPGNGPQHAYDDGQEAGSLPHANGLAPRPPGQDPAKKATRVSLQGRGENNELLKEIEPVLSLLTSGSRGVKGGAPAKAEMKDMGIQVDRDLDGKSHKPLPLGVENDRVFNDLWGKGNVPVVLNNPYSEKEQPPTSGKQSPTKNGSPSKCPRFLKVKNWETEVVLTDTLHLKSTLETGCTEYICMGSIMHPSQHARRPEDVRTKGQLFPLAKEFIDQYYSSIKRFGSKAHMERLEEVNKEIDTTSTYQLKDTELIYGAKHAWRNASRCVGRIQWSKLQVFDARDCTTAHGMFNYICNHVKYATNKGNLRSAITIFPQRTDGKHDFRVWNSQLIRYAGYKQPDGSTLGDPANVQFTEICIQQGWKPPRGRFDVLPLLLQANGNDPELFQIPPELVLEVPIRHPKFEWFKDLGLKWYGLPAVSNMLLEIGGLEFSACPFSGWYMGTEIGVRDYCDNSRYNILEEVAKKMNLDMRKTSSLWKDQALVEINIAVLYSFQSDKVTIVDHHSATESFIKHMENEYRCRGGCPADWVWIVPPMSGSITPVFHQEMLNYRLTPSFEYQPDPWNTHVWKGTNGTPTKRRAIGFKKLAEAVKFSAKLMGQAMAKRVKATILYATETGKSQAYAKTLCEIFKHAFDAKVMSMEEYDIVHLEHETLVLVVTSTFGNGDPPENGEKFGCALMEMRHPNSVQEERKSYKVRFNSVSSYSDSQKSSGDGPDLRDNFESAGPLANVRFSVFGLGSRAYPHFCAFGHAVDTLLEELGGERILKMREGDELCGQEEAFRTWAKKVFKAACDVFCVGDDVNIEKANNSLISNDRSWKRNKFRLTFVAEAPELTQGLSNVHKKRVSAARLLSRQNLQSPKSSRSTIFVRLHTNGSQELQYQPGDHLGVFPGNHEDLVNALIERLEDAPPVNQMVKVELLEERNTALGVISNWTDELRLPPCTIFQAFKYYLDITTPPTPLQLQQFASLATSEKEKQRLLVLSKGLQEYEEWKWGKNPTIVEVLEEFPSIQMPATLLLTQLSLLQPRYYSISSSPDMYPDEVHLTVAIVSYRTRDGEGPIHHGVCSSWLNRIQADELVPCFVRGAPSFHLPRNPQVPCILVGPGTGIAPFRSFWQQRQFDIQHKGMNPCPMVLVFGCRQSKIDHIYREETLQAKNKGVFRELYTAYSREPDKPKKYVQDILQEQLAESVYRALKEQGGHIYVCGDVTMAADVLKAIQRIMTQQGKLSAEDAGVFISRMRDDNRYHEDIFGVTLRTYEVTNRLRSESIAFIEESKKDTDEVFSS
The experiment is described as follows: nNOS (human) enzyme assay, [3H]-L-arginine to L-citrulline conversion. It is filed as biochemical.
Protocol: as §2, §3
Total reaction volume is 60 μL.
as §4, §5, §6, §7, §8

In experiment [3] the test system is L5/L6 spinal nerve ligation model of neuropathic pain (Chung model). As to the kind of experiment: Chung L5/L6 spinal nerve ligation model, thermal hyperalgesia. Type of experiment: in vivo, rat. The following applies: rats, 30 mg/kg i.p., one dose. On the procedure: The L5/L6 spinal nerve was surgically ligated and animals allowed to recover for a period of 7-10 days. During this period animals develop neuropathic pain. The reduction of paw withdrawal latency after an infrared thermal stimulus (post-SNL) was measured following the induction period for comparison with pre-surgery baseline levels (BL). Following drug administration, thermal hyperalgesia was measured at various time points.
(§1) (a) Chung Model of Injury-induced Neuropathic-like Pain: The experimental designs for the Chung Spinal Nerve Ligation SNL Model assay for neuropathic pain are depicted in FIGS. 1a and 1b. Nerve ligation injury was performed according to the method described by Kim and Chung (Kim and Chung, Pain 50:355-363, 1992). This technique produces signs of neuropathic dysesthesias, including tactile allodynia, thermal hyperalgesia, and guarding of the affected paw. Rats were anesthetized with halothane, and the vertebrae over the L4 to S2 region were exposed. The L5 and L6 spinal nerves were exposed, carefully isolated, and tightly ligated with 4-0 silk sutures distal to the DRG. After ensuring homeostatic stability, the wounds were sutured, and the animals allowed to recover in individual cages. Sham-operated rats were prepared in an identical fashion except that the L5/L6 spinal nerves were not ligated. […]

For experiment [4] the test system is unchanged. As to the kind of experiment: Chung L5/L6 spinal nerve ligation model, tactile allodynia. The settings on record: rats, 30 mg/kg i.p., one dose. Type of experiment: in vivo, rat. On the procedure: The L5/L6 spinal nerve was surgically ligated and animals allowed to recover for a period of 7-10 days. During this period animals develop neuropathic pain. The reduction of tactile thresholds (post-SNL) was measured following the induction period for comparison with pre-surgery baseline levels (BL). Following drug administration, tactile allodynia was measured at various time points with calibrated von-Frey filaments.
as §1

Experiment [5] concerns migraine. The settings on record: migraine patients, single i.v. administration; cited from earlier work.
Experiment [6] has as its system migraine. The following applies: open pilot study; cited from earlier work.
[7] abbreviates: Table 2, compounds tested as hydrochloride salts, read-out: IC50, Human NET activity.
[8] abbreviates: IC50, Human NET activity, Table 2, compounds tested as hydrochloride salts.
[9] abbreviates: Table 2, compounds tested as hydrochloride salts.

Entries after “also recorded” stand apart in the source; their conditions may differ. Counter-ions that a name gives are not always drawn. Like-named read-outs stand apart in the source and are kept apart here.

T1 sequence (P23975 whole entry): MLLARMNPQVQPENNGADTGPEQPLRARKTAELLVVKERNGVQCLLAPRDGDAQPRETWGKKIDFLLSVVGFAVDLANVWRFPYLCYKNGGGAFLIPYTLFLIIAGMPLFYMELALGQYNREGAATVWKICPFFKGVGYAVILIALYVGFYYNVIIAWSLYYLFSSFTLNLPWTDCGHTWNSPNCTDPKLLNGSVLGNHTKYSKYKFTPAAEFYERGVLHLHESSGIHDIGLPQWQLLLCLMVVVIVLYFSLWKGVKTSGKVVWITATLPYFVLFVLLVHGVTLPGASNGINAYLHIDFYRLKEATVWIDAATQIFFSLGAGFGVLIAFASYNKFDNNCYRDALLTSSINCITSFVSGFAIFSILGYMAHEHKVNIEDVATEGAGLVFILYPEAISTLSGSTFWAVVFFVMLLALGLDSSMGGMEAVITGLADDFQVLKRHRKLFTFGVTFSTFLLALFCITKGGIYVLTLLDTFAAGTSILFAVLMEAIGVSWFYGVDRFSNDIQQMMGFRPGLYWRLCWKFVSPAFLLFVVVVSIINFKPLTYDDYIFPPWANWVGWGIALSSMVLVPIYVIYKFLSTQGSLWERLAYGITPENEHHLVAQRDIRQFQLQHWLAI

Consider `CNC1CCC(c2c[nH]c3ccc(NC(=N)c4cccs4)cc23)CC1` (mixture of isomers) [Compound 1, N-(3-(4-(methylamino)cyclohexyl)-1H-indol-5-yl)thiophene-2-carboximidamide], for which, on human NET (setting [7]), the IC50 (commonly the midpoint of a concentration-inhibition curve) is 0.52 µM.
`CCNC1CCC(c2c[nH]c3ccc(NC(=N)c4cccs4)cc23)CC1` (mixture of isomers) [Compound 5, N-(3-(4-(ethylamino)cyclohexyl)-1H-indol-5-yl)thiophene-2-carboximidamide]: the IC50 on human NET (setting [7]) was found to be 0.27 µM.
Turning to `CCNC1CCC(c2c[nH]c3ccc(NC(=N)c4cccs4)cc23)C1` (mixture of isomers) [Compound 11, N-(3-(3-(ethylamino)cyclopentyl)-1H-indol-5-yl)thiophene-2-carboximidamide], the 50% inhibitory concentration (IC50) in experiment [1] (Table 3) amounted to 14.3 µM; in experiment [2] (Table 3) it was 0.257 µM.
As to `CN(C)C1CC=C(c2c[nH]c3ccc(NC(=N)c4cccs4)cc23)CC1` (racemic) [(±)-2, N-(3-(4-(dimethylamino)cyclohex-1-enyl)-1H-indol-5-yl)thiophene-2-carboximidamide], the half-maximal inhibitory concentration (IC50) was found to be 0.55 µM at human NET (setting [8]), 51.4 µM in experiment [1] (setting [9]) and 3 µM in experiment [2] (setting [9]).
`CNC1CC=C(c2c[nH]c3ccc(NC(=N)c4cccs4)cc23)CC1` (racemic) [(±)-3, N-(3-(4-(methylamino)cyclohex-1-enyl)-1H-indol-5-yl)thiophene-2-carboximidamide]: the figures for the 50% inhibitory concentration (IC50) (on human NET (setting [7]); in experiment [1] (setting [9]); in experiment [2] (setting [9])) were 1.3 µM, 32 µM and 1.73 µM, respectively.
For `CCNC1CC=C(c2c[nH]c3ccc(NC(=N)c4cccs4)cc23)CC1` (racemic) [(±)-6, N-(3-(4-(ethylamino)cyclohex-1-enyl)-1H-indol-5-yl)thiophene-2-carboximidamide] the same measures were 0.28 µM, 40.3 µM and 1.42 µM.
Regarding `CNC1CCCC(c2c[nH]c3ccc(NC(=N)c4cccs4)cc23)C1` (racemic) [(±)-8, N-(3-(3-(methylamino)cyclohexyl)-1H-indol-5-yl)thiophene-2-carboximidamide], the half-maximal inhibitory concentration (IC50) on human NET (IC50, Human NET, Table 3) was found to be 0.88 µM; in experiment [1] (Table 3), 7.76 µM.
In turn, `CCNC1CCCC(c2c[nH]c3ccc(NC(=N)c4cccs4)cc23)C1` (racemic) [(±)-9, N-(3-(3-(ethylamino)cyclohexyl)-1H-indol-5-yl)thiophene-2-carboximidamide] came in with an IC50 on human NET (IC50, Human NET, Table 3) of 0.76 µM.
Turning to `CCNC1CCCC(c2c[nH]c3ccc(NC(=N)c4cccs4)cc23)C1` (racemic) [(±)-10, N-(3-(3-(ethylamino)cyclohexyl)-1H-indol-5-yl)thiophene-2-carboximidamide], the IC50 at human NET (IC50, Human NET, Table 3) amounted to 1.7 µM.
For the molecule `CNC1CCCC(c2c[nH]c3ccc(NC(=N)c4cccs4)cc23)C1` (single isomer, unassigned) [(±)-7, N-(3-(-3-(Methylamino)cyclohexyl)-1H-indol-5-yl)thiophene-2-carboximidamide], the half-maximal inhibitory concentration (IC50) on human NET (IC50, Human NET, Table 3) was found to be 2.5 µM; in experiment [1] (Table 3) it was 77.6 µM.
As for `CN(C)C1CC=C(c2c[nH]c3ccc(NC(=N)c4cccs4)cc23)CC1` (single isomer, unassigned) [Compound 2a, N-(3-(4-(Dimethylamino)cyclohex-1-enyl)-1H-indol-5-yl)thiophene-2-carboximidamide], the IC50 at human NET (setting [8]) was found to be 1.1 µM; in experiment [1] (setting [9]), 47.1 µM; in experiment [2] (setting [9]), 0.865 µM.
On the same counts, the results for `CN(C)C1CC=C(c2c[nH]c3ccc(NC(=N)c4cccs4)cc23)CC1` (single isomer, unassigned) [Compound 2b, N-(3-(4-(Dimethylamino)cyclohex-1-enyl)-1H-indol-5-yl)thiophene-2-carboximidamide] are 0.96 µM, 96 µM and 0.839 µM.
In the case of `CNC1CC=C(c2c[nH]c3ccc(NC(=N)c4cccs4)cc23)CC1` (single isomer, unassigned) [Compound 3a, N-(3-(4-(Methylamino)cyclohex-1-enyl)-1H-indol-5-yl)thiophene-2-carboximidamide], the IC50 on human NET (setting [7]) turned out to be 1.1 µM; in experiment [1] (setting [9]), 53.4 µM; in experiment [2] (setting [9]), 0.439 µM.
As to `CNC1CC=C(c2c[nH]c3ccc(NC(=N)c4cccs4)cc23)CC1` (single isomer, unassigned) [Compound 3b, N-(3-(4-(Methylamino)cyclohex-1-enyl)-1H-indol-5-yl)thiophene-2-carboximidamide], the IC50 is 1.1 µM at human NET (setting [7]), 40.9 µM in experiment [1] (setting [9]) and 0.537 µM in experiment [2] (setting [9]).
As for `CCN[C@H]1CC[C@H](c2c[nH]c3ccc(NC(=N)c4cccs4)cc32)CC1` (single isomer, unassigned) [Compound 5a, trans-N-(3-(4-(Ethylamino)cyclohexyl)-1H-indol-5-yl)thiophene-2-carboximidamide], at human NET (setting [7]), the concentration for half-maximal inhibition (IC50) is 2.8 µM.
As to `CCN[C@H]1CC[C@@H](c2c[nH]c3ccc(NC(=N)c4cccs4)cc32)CC1` (single isomer, unassigned) [Compound 5b, cis-N-(3-(4-(Ethylamino)cyclohexyl)-1H-indol-5-yl) thiophene-2-carboximidamide], the half-inhibitory concentration (IC50) at human NET (setting [7]) was 0.38 µM.
As for `CNC1CCCC(c2c[nH]c3ccc(NC(=N)c4cccs4)cc23)C1` (single isomer, unassigned) [Compound 7a, N-(3-(3-(Methylamino)cyclohexyl)-1H-indol-5-yl)thiophene-2-carboximidamide dihydrochloride [(+)-cis-enantiomer]], the “reversal of thermal hyperalgesia (antihyperalgesic effect)” value in experiment [3] is listed as “clear antihyperalgesic effect”; in experiment [3] (listed as (+)−7a) it was “reversal of thermal hyperalgesia”. The IC50 on human NET (IC50, Human NET, Table 3) came out at 1 µM; in experiment [1] (Table 3), 49.3 µM. Besides, the figures for the “reversal of tactile allodynia (antiallodynic effect)” value in experiment [4] and in experiment [4] (listed as (+)−7a) were “reversal of tactile hyperthesia; also recorded: pronounced antiallodynic effect” and “reversal of tactile allodynia”, respectively.
As to `CNC1CCCC(c2c[nH]c3ccc(NC(=N)c4cccs4)cc23)C1` (single isomer, unassigned) [Compound 7b, N-(3-(3-(Methylamino)cyclohexyl)-1H-indol-5-yl)thiophene-2-carboximidamide dihydrochloride [(−)-cis-enantiomer]], the IC50 on human NET (IC50, Human NET, Table 3) stood at 5.2 µM; in experiment [1] (Table 3), 75 µM.
With `CN[C@H]1CC[C@@H](c2c[nH]c3ccc(NC(=N)c4cccs4)cc32)CC1` [Compound 1a, N-(3-(4-(Methylamino)cyclohexyl)-1H-indol-5-yl)thiophene-2-carboximidamide], on human NET (setting [7]), the IC50 stood at 0.4 µM.
On to `CN[C@H]1CC[C@H](c2c[nH]c3ccc(NC(=N)c4cccs4)cc32)CC1` [Compound 1b, N-(3-(4-(Methylamino)cyclohexyl)-1H-indol-5-yl)thiophene-2-carboximidamide], for which the IC50 on human NET (setting [7]) was 2 µM.
For `CN(C)C1CCC(c2c[nH]c3ccc(NC(=N)c4cccs4)cc23)CC1` (stereo not drawn) [Compound 4, N-(3-(4-(dimethylamino)cyclohexyl)-1H-indol-5-yl)thiophene-2-carboximidamide], the figures for the IC50 (at human NET (setting [8]); in experiment [1] (setting [9]); in experiment [2] (setting [9])) were 0.19 µM, 31.8 µM and 3.44 µM, respectively.
In the case of `CNC(=N)NCCC[C@H](N)C(=O)O` [L-NMMA, N^G-monomethyl-L-arginine], in the experiment on migraine [5], the response rate is listed as 67%.
With `C/C1=C2/[N-][C@H]([C@H](CC(N)=O)[C@@]2(C)CCC(=O)NC[C@@H](C)OP(=O)([O-])O[C@H]2[C@@H](O)[C@@H](n3cnc4cc(C)c(C)cc43)O[C@@H]2CO)[C@]2(C)N=C(/C(C)=C3N=C(/C=C4N=C1[C@@H](CCC(N)=O)C\4(C)C)[C@@H](CCC(N)=O)[C@]\3(C)CC(N)=O)[C@@H](CCC(N)=O)[C@]2(C)CC(N)=O.[Co+3].[OH-]` [hydroxycobalamin], the “patients with a reduction in the frequency of migraine attack of 50%” value in the experiment on migraine [6] is 53%.
